From ChEMBL document CHEMBL3217419, “Blockage of collagen binding to integrin 21: structureactivity relationship of proteinprotein interaction inhibitors” (Medchemcomm, 2011) come the findings set out here.

Data set [1] concerns the target Integrin alpha-1 (Homo sapiens) (UniProt P56199). Kind of data set: Inhibition of human alpha1 integrin expressed in CHO cells binding to collagen I at 100 uM after 2 hrs by cell-adhesion-based WST-1 assay relative to control. (In general: Formazan colour is commonly taken as a measure of viable cells.)
Data set [2] shares this target. Kind of data set: Inhibition of human alpha1 integrin expressed in CHO cells binding to collagen I at 50 uM after 2 hrs by cell-adhesion-based WST-1 assay.
Data set [3] deals with CHO. Kind of data set: Cytotoxicity against CHO cells assessed as release of lactate dehydrogenase by resazurin assay. Particulars: chinese hamster; call rule not given here. It counts as cell-based, Cricetulus griseus. Background: Resazurin is reduced to fluorescent resorufin, in cell work by metabolically active cells.
Data set [4] concerns the target T1, Integrin alpha-1 (Homo sapiens, UniProt P56199).
T1 sequence (P56199 whole entry): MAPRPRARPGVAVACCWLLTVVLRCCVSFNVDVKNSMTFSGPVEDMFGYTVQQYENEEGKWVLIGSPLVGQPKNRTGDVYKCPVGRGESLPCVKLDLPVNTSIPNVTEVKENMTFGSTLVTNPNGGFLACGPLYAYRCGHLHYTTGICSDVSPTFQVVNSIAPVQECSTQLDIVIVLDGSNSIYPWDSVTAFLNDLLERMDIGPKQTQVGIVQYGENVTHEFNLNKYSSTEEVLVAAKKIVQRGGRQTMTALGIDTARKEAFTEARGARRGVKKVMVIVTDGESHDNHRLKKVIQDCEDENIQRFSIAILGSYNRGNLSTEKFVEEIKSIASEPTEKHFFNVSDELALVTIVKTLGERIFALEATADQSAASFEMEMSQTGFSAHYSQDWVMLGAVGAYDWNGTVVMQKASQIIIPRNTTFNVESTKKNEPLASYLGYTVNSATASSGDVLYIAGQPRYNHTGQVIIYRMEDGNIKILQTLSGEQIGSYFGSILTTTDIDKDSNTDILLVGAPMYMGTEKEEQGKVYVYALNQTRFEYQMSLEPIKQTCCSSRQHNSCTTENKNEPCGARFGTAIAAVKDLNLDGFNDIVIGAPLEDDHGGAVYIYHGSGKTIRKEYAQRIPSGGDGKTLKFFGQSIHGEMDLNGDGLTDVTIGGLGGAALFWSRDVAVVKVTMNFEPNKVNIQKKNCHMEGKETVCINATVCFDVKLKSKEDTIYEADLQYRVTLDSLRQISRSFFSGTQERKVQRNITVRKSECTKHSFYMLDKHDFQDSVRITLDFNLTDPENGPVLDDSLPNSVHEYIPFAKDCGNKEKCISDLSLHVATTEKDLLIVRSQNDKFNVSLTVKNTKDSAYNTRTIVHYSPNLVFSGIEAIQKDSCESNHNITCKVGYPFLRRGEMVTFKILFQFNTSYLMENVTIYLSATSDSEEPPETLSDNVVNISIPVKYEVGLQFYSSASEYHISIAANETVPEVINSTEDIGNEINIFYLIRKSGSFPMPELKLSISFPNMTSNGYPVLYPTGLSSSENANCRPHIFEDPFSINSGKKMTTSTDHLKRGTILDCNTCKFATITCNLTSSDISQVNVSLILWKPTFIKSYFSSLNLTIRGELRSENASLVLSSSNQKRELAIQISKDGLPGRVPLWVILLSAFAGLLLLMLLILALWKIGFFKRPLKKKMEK
Kind of data set: Inhibition of human alpha1 integrin expressed in CHO cells binding to collagen I after 2 hrs by cell-adhesion-based WST-1 assay.

The subject of data set [5] is CHO. Kind of data set: Selectivity ratio of EC50 for human alpha2 integrin expressed in CHO cells binding to collagen IV to EC50 for human alpha1 integrin expressed in CHO cells binding to collagen I. It is filed as cell-based.
Data set [6] is described as follows: Lipophilicity, log P of the compound. It is filed as physicochemical. As to conditions: octanol/water.
Data set [7] deals with Integrin alpha2/beta1 (Homo sapiens, UniProt P05556+P17301). Kind of data set: Binding affinity to alpha2beta1 integrin (unknown origin). It is filed as protein-complex assay.
Sequence of Integrin alpha2/beta1 (P05556 whole entry): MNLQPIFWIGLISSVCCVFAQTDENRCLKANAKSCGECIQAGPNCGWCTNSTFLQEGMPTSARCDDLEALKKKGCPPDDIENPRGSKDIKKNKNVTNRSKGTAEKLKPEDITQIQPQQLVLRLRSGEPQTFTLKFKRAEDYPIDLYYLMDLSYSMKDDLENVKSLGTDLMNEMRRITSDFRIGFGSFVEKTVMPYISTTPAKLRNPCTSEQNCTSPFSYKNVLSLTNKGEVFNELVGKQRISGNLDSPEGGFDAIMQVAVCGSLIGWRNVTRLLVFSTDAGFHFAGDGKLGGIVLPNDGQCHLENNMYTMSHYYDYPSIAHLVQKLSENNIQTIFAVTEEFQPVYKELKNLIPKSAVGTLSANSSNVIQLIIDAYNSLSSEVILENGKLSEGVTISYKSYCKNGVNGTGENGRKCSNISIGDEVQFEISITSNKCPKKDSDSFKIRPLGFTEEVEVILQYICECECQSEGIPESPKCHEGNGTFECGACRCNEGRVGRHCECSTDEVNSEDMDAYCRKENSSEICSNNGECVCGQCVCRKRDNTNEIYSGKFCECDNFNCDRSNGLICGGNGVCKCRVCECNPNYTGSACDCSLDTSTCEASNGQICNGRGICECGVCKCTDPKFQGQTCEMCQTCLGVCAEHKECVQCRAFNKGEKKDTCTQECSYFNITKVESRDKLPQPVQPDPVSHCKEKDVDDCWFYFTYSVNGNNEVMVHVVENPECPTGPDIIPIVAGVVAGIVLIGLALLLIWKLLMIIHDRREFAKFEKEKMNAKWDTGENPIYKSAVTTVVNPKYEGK
Sequence of Integrin alpha2/beta1 (P17301 whole entry): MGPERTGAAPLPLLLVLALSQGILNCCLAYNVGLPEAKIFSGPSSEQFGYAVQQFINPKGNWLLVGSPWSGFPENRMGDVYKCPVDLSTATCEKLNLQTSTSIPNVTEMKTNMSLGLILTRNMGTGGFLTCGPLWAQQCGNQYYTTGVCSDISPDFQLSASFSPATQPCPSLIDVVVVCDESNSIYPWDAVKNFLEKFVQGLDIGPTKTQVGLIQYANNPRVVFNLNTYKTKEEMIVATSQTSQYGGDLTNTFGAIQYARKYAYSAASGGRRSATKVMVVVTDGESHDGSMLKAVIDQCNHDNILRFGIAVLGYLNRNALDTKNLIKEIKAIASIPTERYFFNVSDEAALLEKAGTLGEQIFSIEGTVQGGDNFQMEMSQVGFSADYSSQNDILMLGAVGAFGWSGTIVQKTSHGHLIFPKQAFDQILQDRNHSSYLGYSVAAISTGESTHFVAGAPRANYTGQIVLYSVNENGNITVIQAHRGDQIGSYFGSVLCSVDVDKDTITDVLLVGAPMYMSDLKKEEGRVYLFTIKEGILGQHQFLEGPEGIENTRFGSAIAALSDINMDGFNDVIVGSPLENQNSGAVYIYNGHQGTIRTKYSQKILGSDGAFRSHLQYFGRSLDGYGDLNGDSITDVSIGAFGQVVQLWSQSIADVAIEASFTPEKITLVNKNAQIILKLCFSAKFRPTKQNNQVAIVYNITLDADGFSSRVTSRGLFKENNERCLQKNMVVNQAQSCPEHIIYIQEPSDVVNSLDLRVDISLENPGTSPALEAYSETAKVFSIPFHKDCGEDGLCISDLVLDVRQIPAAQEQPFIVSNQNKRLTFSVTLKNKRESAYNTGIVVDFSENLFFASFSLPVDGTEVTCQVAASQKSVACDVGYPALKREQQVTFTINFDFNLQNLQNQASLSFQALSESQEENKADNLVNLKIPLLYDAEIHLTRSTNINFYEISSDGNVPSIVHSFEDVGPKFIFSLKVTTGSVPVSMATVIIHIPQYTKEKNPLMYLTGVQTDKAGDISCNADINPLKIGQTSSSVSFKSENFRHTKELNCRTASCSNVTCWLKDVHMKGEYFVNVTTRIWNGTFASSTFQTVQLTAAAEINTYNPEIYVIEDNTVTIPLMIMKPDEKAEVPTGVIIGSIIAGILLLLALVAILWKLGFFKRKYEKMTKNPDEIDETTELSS

The term inhibition denotes the percentage by which the read-out fell short of the control. For orientation: EC50 means the concentration needed to bring the measured effect to its halfway point. High values mean a less potent agent, low ones a more potent agent. Consider `Cc1ccc(S(=O)(=O)Nc2ccc(C(=O)c3ccccc3)cc2)cc1`, for which the Imax in data set [1] stood at 35%. The inhibition in data set [2] was determined as 35%. Moreover, in data set [3], the Activity entry is on record as “<= 200 uM”. Also, the EC50 result in data set [4] is recorded as “Not Active”.

For `O=C(c1ccccc1)c1ccc(NS(=O)(=O)c2ccccc2)cc1`, in data set [2], the inhibition turned out to be 0%. For the same molecule, the Activity result in data set [3] is given as “<= 200 uM”. For the same molecule, the EC50 result in data set [4] is “Not Active”.

Molecule `Cc1ccc(S(=O)(=O)Nc2cccc(C(=O)c3ccccc3)c2)cc1` yielded an Imax in data set [1] of 34%. This molecule also had an inhibition in data set [2] of 34%. In addition, in data set [3], the Activity entry is given as “<= 200 uM”. Besides, in data set [4], the EC50 result is “Not Active”.

In turn, `O=C(c1ccccc1)c1ccc(OS(=O)(=O)c2ccc(Cl)cc2Cl)cc1` displayed an inhibition in data set [2] of 0%. In addition, the 50% effective concentration (EC50) entry in data set [4] was “Not Active”.

Take `CN(c1cccc(C(=O)c2ccccc2)c1)S(=O)(=O)c1ccc(Cl)cc1Cl`: the inhibition in data set [2] was found to be 8%. The EC50 result in data set [4] is “Not Active”.

Consider `O=C(c1ccccc1)c1cccc(NS(=O)(=O)c2ccc(Br)cc2)c1`, for which the Imax in data set [1] stood at 96%. The molecule further registered an inhibition in data set [2] of 92%. Besides, in data set [5], the Ratio EC50 worked out at 2.2. In data set [3], the Activity result is recorded as “<= 200 uM”.

The term logP denotes the decadic logarithm of the partition coefficient of the neutral form, usually between octanol and water. Read a high logP as higher lipophilicity. `O=C(c1ccccc1)c1ccc(OS(=O)(=O)c2cc(Cl)cc(Cl)c2O)cc1` registered an Imax in data set [1] of 95%. The inhibition in data set [2] was found to be 86%. For the same molecule, in data set [5], the Ratio EC50 was 2.8. In data set [6], the logP stood at 3.1. In addition, in data set [3], the Activity result is listed as “<= 100 uM”.

In data set [1], `O=C(c1ccccc1)c1cccc(NS(=O)(=O)c2ccc(Cl)cc2Cl)c1` yielded an Imax of 69%. In data set [2], the inhibition turned out to be 69%. Further, in data set [5], the Ratio EC50 was found to be 3. In addition, in data set [3], the Activity entry was “<= 200 uM”.

For `CN(c1ccc(C(=O)c2ccccc2)cc1)S(=O)(=O)c1ccc(Cl)cc1Cl`, the inhibition in data set [2] was 0%. Besides, in data set [4], the EC50 result is recorded as “Not Active”.

In data set [1], `O=S(=O)(Nc1ccc2c(c1)Cc1ccccc1-2)c1ccc(Cl)cc1Cl` gave an Imax of 87%. The same molecule came in with an inhibition in data set [2] of 70%. Further, the Ratio EC50 in data set [5] worked out at 0.8. The molecule also displayed a log partition coefficient (logP) in data set [6] of 4.1. Moreover, in data set [3], the Activity result is given as “<= 200 uM”.

Regarding `O=C(c1ccccc1)c1ccc(NS(=O)(=O)c2ccc(Br)cc2)cc1`, the Imax in data set [1] worked out at 34%. The inhibition in data set [2] came to 34%. In addition, the Activity entry in data set [3] is given as “<= 200 uM”. Further, the EC50 entry in data set [4] is given as “Not Active”.

In data set [2], `CC(=O)c1cccc(NS(=O)(=O)c2ccc(Cl)cc2Cl)c1` displayed an inhibition of 0%. Further, in data set [4], the 50% effective concentration (EC50) result was “Not Active”.

`O=C(c1ccccc1)c1ccc(NS(=O)(=O)c2ccc(Cl)cc2Cl)cc1` had an Imax in data set [1] of 82%. The inhibition in data set [2] was 82%. Moreover, in data set [5], the Ratio EC50 was 1.5. This molecule also gave a lipophilicity (logP) in data set [6] of 3.5. Also, in data set [3], the Activity result is reported as “<= 20 uM”.

Turning to `O=C1c2ccccc2-c2ccc(NS(=O)(=O)c3ccc(Cl)cc3Cl)cc21`, in data set [1], the Imax was determined as 93%. For the same molecule, in data set [2], the inhibition came out at 93%. In addition, the Ratio EC50 in data set [5] is 1.2. Besides, in data set [3], the Activity result is recorded as “<= 200 uM”.

In data set [1], `O=C(c1ccccc1)c1cccc(NS(=O)(=O)c2ccc(I)cc2)c1` yielded an Imax of 72%. This molecule came in with an inhibition in data set [2] of 72%. The Activity result in data set [3] is reported as “<= 200 uM”.

For `O=C(c1ccccc1)c1ccc(NS(=O)(=O)c2cccc(-c3ccc(F)cc3)c2)cc1`, in data set [7], the EC50 was 2000 nM.

`O=C(c1ccccc1)c1cccc(NS(=O)(=O)c2ccccc2)c1` returned an inhibition in data set [2] of 4%. Moreover, the Activity result in data set [3] is reported as “<= 200 uM”. The concentration giving a half-maximal response (EC50) entry in data set [4] was “Not Active”.

Consider `O=C(c1ccccc1)c1ccc(NS(=O)(=O)c2ccc(I)cc2)cc1`, for which the Imax in data set [1] was 85%. In addition, the inhibition in data set [2] was determined as 85%. In addition, the Ratio EC50 in data set [5] was found to be 1.3. Further, the Activity result in data set [3] was “<= 200 uM”.

With `CN(c1ccc2c(c1)C(=O)c1ccccc1-2)S(=O)(=O)c1ccc(Cl)cc1Cl`, in data set [2], the inhibition is 0%. The concentration giving a half-maximal response (EC50) entry in data set [4] is reported as “Not Active”.
